From ChEMBL document CHEMBL3885861, “Open TG-GATES”

Species: Rattus norvegicus
Test: Open TG-GATES - Regimen: Daily Repeat
Assay type: toxicity, organism-based, Sprague-Dawley
Set-up: regimen Daily Repeat, gender Male, age 6 weeks
Conditions: in vivo, po, route gavage; for APTT / Bas / Eos / Fbg / Hb / Ht / Lym / MCH / MCHC / MCV / Mono / Neu / PT / Plat / RBC / Ret / WBC: tissue Blood; for KIDNEY_L / KIDNEY_R / KIDNEY_TOTAL: tissue Kidney; for LIVER: tissue Liver; for A/G / ALP / ALT / AST / BUN / CRE / Ca / Cl / DBIL / GLC / IP / K / LDH / Na / PL / RALB / TBIL / TC / TG / TP / gamma-GTP: tissue Plasma
[1] = 30 mg/kg, 72 h, dose level Middle, time 3 day
[2] = 30 mg/kg, […], dose level Middle, time 7 day
[3] = 30 mg/kg, […], dose level Middle, time 14 day
[4] = 30 mg/kg, […], dose level Middle, time 28 day
[5] = 100 mg/kg, 72 h, dose level High, time 3 day
[6] = 100 mg/kg, […], dose level High, time 7 day
[7] = 100 mg/kg, […], dose level High, time 14 day
[8] = 100 mg/kg, […], dose level High, time 28 day

Nc1ccc(Cc2ccc(N)cc2)cc1
TERMINAL_BW [1]: 240.8 g
APTT [1]: 13.8 s
Bas [1]: 0%
Eos [1]: 1%
Fbg [1]: 295.8 mg/dL
Hb [1]: 13.3 g/dL
Ht [1]: 39.3%
Lym [1]: 72.6%
MCH [1]: 20.5 pg
MCHC [1]: 33.8%
MCV [1]: 60.6 fL
Mono [1]: 2.6%
Neu [1]: 23%
PT [1]: 11.4 s
Plat [1]: 133.5 x10_4/uL
RBC [1]: 649.4 x10_4/ul
Ret [1]: 5.6%
WBC [1]: 112 x10_2/uL
KIDNEY_L [1]: 1 g
KIDNEY_R [1]: 1 g
KIDNEY_TOTAL [1]: 2 g
LIVER [1]: 12.3 g
A/G [1]: 0.8
ALP [1]: 1785.8 IU/L
ALT [1]: 59.4 IU/L
AST [1]: 104 IU/L
BUN [1]: 14.6 mg/dL
CRE [1]: 0.2 mg/dL
Ca [1]: 11.1 mg/dL
Cl [1]: 105.6 meq/L
DBIL [1]: 0.022 mg/dL
GLC [1]: 159.2 mg/dL
IP [1]: 7.5 mg/dL
K [1]: 4.2 meq/L
LDH [1]: 89.2 IU/L
Na [1]: 143.4 meq/L
PL [1]: 160 mg/dL
RALB [1]: 2.6 g/dL
TBIL [1]: 0.05 mg/dL
TC [1]: 95.8 mg/dL
TG [1]: 83.4 mg/dL
TP [1]: 5.8 g/dL
gamma-GTP [1]: 2 IU/L
TERMINAL_BW [2]: 277.9 g
TERMINAL_BW [3]: 333.9 g
TERMINAL_BW [4]: 429.1 g
APTT [2]: 14.2 s
Bas [2]: 0.2%
Eos [2]: 0.8%
Fbg [2]: 286 mg/dL
Hb [2]: 13.7 g/dL
Ht [2]: 39.1%
Lym [2]: 71.6%
MCH [2]: 20.6 pg
MCHC [2]: 34.9%
MCV [2]: 59.1 fL
Mono [2]: 2.8%
Neu [2]: 23.8%
PT [2]: 11.4 s
Plat [2]: 147.7 x10_4/uL
RBC [2]: 663 x10_4/ul
Ret [2]: 5.2%
WBC [2]: 101.6 x10_2/uL
APTT [3]: 15.3 s
Bas [3]: 0.2%
Eos [3]: 0.6%
Fbg [3]: 273.6 mg/dL
Hb [3]: 13.7 g/dL
Ht [3]: 39.6%
Lym [3]: 75%
MCH [3]: 20.1 pg
MCHC [3]: 34.7%
MCV [3]: 57.9 fL
Mono [3]: 2.2%
Neu [3]: 21.2%
PT [3]: 11.8 s
Plat [3]: 141.9 x10_4/uL
RBC [3]: 684.8 x10_4/ul
Ret [3]: 4.6%
WBC [3]: 128.9 x10_2/uL
APTT [4]: 17.1 s
Bas [4]: 0.8%
Eos [4]: 1%
Fbg [4]: 273.4 mg/dL
Hb [4]: 14.9 g/dL
Ht [4]: 41.7%
Lym [4]: 76.8%
MCH [4]: 19.8 pg
MCHC [4]: 35.7%
MCV [4]: 55.5 fL
Mono [4]: 2.2%
Neu [4]: 19%
PT [4]: 11.9 s
Plat [4]: 109.8 x10_4/uL
RBC [4]: 752 x10_4/ul
Ret [4]: 2.7%
WBC [4]: 131.8 x10_2/uL
KIDNEY_L [2]: 1.1 g
KIDNEY_R [2]: 1.1 g
KIDNEY_TOTAL [2]: 2.2 g
KIDNEY_L [3]: 1.2 g
KIDNEY_R [3]: 1.2 g
KIDNEY_TOTAL [3]: 2.4 g
KIDNEY_L [4]: 1.4 g
KIDNEY_R [4]: 1.4 g
KIDNEY_TOTAL [4]: 2.9 g
LIVER [2]: 13.2 g
LIVER [3]: 15.2 g
LIVER [4]: 19.2 g
A/G [2]: 0.8
ALP [2]: 1631.6 IU/L
ALT [2]: 37 IU/L
AST [2]: 68 IU/L
BUN [2]: 17.4 mg/dL
CRE [2]: 0.2 mg/dL
Ca [2]: 11.2 mg/dL
Cl [2]: 105.2 meq/L
DBIL [2]: 0.026 mg/dL
GLC [2]: 173.6 mg/dL
IP [2]: 7.4 mg/dL
K [2]: 4.1 meq/L
LDH [2]: 85.2 IU/L
Na [2]: 143 meq/L
PL [2]: 145 mg/dL
RALB [2]: 2.7 g/dL
TBIL [2]: 0.064 mg/dL
TC [2]: 81 mg/dL
TG [2]: 125.2 mg/dL
TP [2]: 6 g/dL
gamma-GTP [2]: 1.2 IU/L
A/G [3]: 0.8
ALP [3]: 1617.2 IU/L
ALT [3]: 38.4 IU/L
AST [3]: 66.4 IU/L
BUN [3]: 15.6 mg/dL
CRE [3]: 0.2 mg/dL
Ca [3]: 10.9 mg/dL
Cl [3]: 105 meq/L
DBIL [3]: 0.016 mg/dL
GLC [3]: 190.6 mg/dL
IP [3]: 6.8 mg/dL
K [3]: 3.7 meq/L
LDH [3]: 71.8 IU/L
Na [3]: 143.2 meq/L
PL [3]: 141.2 mg/dL
RALB [3]: 2.6 g/dL
TBIL [3]: 0.054 mg/dL
TC [3]: 72.8 mg/dL
TG [3]: 96.8 mg/dL
TP [3]: 6.1 g/dL
gamma-GTP [3]: 1 IU/L
A/G [4]: 0.7
ALP [4]: 1167.6 IU/L
ALT [4]: 38.6 IU/L
AST [4]: 66.2 IU/L
BUN [4]: 15.4 mg/dL
CRE [4]: 0.2 mg/dL
Ca [4]: 11.1 mg/dL
Cl [4]: 104.8 meq/L
DBIL [4]: 0.024 mg/dL
GLC [4]: 178.6 mg/dL
IP [4]: 6.1 mg/dL
K [4]: 4 meq/L
LDH [4]: 74.6 IU/L
Na [4]: 145.2 meq/L
PL [4]: 141.6 mg/dL
RALB [4]: 2.6 g/dL
TBIL [4]: 0.062 mg/dL
TC [4]: 73.6 mg/dL
TG [4]: 110.4 mg/dL
TP [4]: 6.4 g/dL
gamma-GTP [4]: 1 IU/L
TERMINAL_BW [5]: 208.1 g
APTT [5]: 17.9 s
Bas [5]: 0.6%
Eos [5]: 1%
Fbg [5]: 405.8 mg/dL
Hb [5]: 12.8 g/dL
Ht [5]: 35.9%
Lym [5]: 66.8%
MCH [5]: 19.9 pg
MCHC [5]: 35.8%
MCV [5]: 55.5 fL
Mono [5]: 6.2%
Neu [5]: 25.2%
PT [5]: 12 s
Plat [5]: 166 x10_4/uL
RBC [5]: 646 x10_4/ul
Ret [5]: 4.3%
WBC [5]: 223.6 x10_2/uL
KIDNEY_L [5]: 1 g
KIDNEY_R [5]: 1 g
KIDNEY_TOTAL [5]: 2 g
LIVER [5]: 11.6 g
A/G [5]: 0.6
ALP [5]: 3437 IU/L
ALT [5]: 290.2 IU/L
AST [5]: 509.2 IU/L
BUN [5]: 12.6 mg/dL
CRE [5]: 0.2 mg/dL
Ca [5]: 11.3 mg/dL
Cl [5]: 103.8 meq/L
DBIL [5]: 1.3 mg/dL
GLC [5]: 145.2 mg/dL
IP [5]: 7.3 mg/dL
K [5]: 4.7 meq/L
LDH [5]: 160.6 IU/L
Na [5]: 141.6 meq/L
PL [5]: 325.8 mg/dL
RALB [5]: 2.3 g/dL
TBIL [5]: 2.7 mg/dL
TC [5]: 221 mg/dL
TG [5]: 69.4 mg/dL
TP [5]: 5.9 g/dL
gamma-GTP [5]: 7.8 IU/L
TERMINAL_BW [6]: 235.7 g
TERMINAL_BW [7]: 264.2 g
TERMINAL_BW [8]: 273.7 g
APTT [6]: 17.6 s
Bas [6]: 0.6%
Eos [6]: 0.6%
Fbg [6]: 273.8 mg/dL
Hb [6]: 12.4 g/dL
Ht [6]: 34.8%
Lym [6]: 66.6%
MCH [6]: 19.7 pg
MCHC [6]: 35.6%
MCV [6]: 55.2 fL
Mono [6]: 5.8%
Neu [6]: 25.8%
PT [6]: 12.5 s
Plat [6]: 193.4 x10_4/uL
RBC [6]: 631 x10_4/ul
Ret [6]: 7.9%
WBC [6]: 238.1 x10_2/uL
APTT [7]: 21.7 s
Bas [7]: 1%
Eos [7]: 1%
Fbg [7]: 292.2 mg/dL
Hb [7]: 11.9 g/dL
Ht [7]: 33.6%
Lym [7]: 69.4%
MCH [7]: 19.8 pg
MCHC [7]: 35.4%
MCV [7]: 56 fL
Mono [7]: 5.6%
Neu [7]: 22.8%
PT [7]: 13 s
Plat [7]: 166.6 x10_4/uL
RBC [7]: 601.8 x10_4/ul
Ret [7]: 8.1%
WBC [7]: 308 x10_2/uL
APTT [8]: 37.8 s
Bas [8]: 0.8%
Eos [8]: 1%
Fbg [8]: 275.8 mg/dL
Hb [8]: 12.1 g/dL
Ht [8]: 33.5%
Lym [8]: 67.2%
MCH [8]: 18.4 pg
MCHC [8]: 36.1%
MCV [8]: 51.2 fL
Mono [8]: 4%
Neu [8]: 26.6%
PT [8]: 15.2 s
Plat [8]: 121.3 x10_4/uL
RBC [8]: 654 x10_4/ul
Ret [8]: 5.8%
WBC [8]: 304.5 x10_2/uL
KIDNEY_L [6]: 1 g
KIDNEY_R [6]: 1 g
KIDNEY_TOTAL [6]: 2 g
KIDNEY_L [7]: 1 g
KIDNEY_R [7]: 1.1 g
KIDNEY_TOTAL [7]: 2.1 g
KIDNEY_L [8]: 1.1 g
KIDNEY_R [8]: 1 g
KIDNEY_TOTAL [8]: 2.1 g
LIVER [6]: 13.1 g
LIVER [7]: 16.2 g
LIVER [8]: 14.1 g
A/G [6]: 0.6
ALP [6]: 3310.8 IU/L
ALT [6]: 96.2 IU/L
AST [6]: 198.8 IU/L
BUN [6]: 13 mg/dL
CRE [6]: 0.2 mg/dL
Ca [6]: 11.6 mg/dL
Cl [6]: 103.8 meq/L
DBIL [6]: 0.9 mg/dL
GLC [6]: 148.4 mg/dL
IP [6]: 6.9 mg/dL
K [6]: 4.4 meq/L
LDH [6]: 95 IU/L
Na [6]: 143.6 meq/L
PL [6]: 213.6 mg/dL
RALB [6]: 2.4 g/dL
TBIL [6]: 1.7 mg/dL
TC [6]: 135 mg/dL
TG [6]: 48.6 mg/dL
TP [6]: 6.1 g/dL
gamma-GTP [6]: 6 IU/L
A/G [7]: 0.5
ALP [7]: 2423.6 IU/L
ALT [7]: 91.4 IU/L
AST [7]: 260 IU/L
BUN [7]: 17.6 mg/dL
CRE [7]: 0.2 mg/dL
Ca [7]: 11.4 mg/dL
Cl [7]: 103.6 meq/L
DBIL [7]: 0.7 mg/dL
GLC [7]: 143.6 mg/dL
IP [7]: 6.4 mg/dL
K [7]: 4.1 meq/L
LDH [7]: 143.8 IU/L
Na [7]: 143.6 meq/L
PL [7]: 226.4 mg/dL
RALB [7]: 2.5 g/dL
TBIL [7]: 1.6 mg/dL
TC [7]: 165.4 mg/dL
TG [7]: 49.6 mg/dL
TP [7]: 7 g/dL
gamma-GTP [7]: 8 IU/L
A/G [8]: 0.5
ALP [8]: 3009.6 IU/L
ALT [8]: 116.6 IU/L
AST [8]: 300 IU/L
BUN [8]: 19.2 mg/dL
CRE [8]: 0.3 mg/dL
Ca [8]: 11.5 mg/dL
Cl [8]: 102 meq/L
DBIL [8]: 0.6 mg/dL
GLC [8]: 144 mg/dL
IP [8]: 5.6 mg/dL
K [8]: 4 meq/L
LDH [8]: 108.6 IU/L
Na [8]: 146.2 meq/L
PL [8]: 158.4 mg/dL
RALB [8]: 2.5 g/dL
TBIL [8]: 1.7 mg/dL
TC [8]: 113.4 mg/dL
TG [8]: 33.2 mg/dL
TP [8]: 7.6 g/dL
gamma-GTP [8]: 7.2 IU/L
